Results: patent US20080125432A1 (Devgen NV, priority 2004, published 2008)

Target: T1, Ito (Kv4.3) (Homo sapiens, UniProt Q9UK17)
T1 construct: endogenous in cells; host or cells: freshly isolated human atrial myocytes
T1 sequence (Q9UK17 1-655): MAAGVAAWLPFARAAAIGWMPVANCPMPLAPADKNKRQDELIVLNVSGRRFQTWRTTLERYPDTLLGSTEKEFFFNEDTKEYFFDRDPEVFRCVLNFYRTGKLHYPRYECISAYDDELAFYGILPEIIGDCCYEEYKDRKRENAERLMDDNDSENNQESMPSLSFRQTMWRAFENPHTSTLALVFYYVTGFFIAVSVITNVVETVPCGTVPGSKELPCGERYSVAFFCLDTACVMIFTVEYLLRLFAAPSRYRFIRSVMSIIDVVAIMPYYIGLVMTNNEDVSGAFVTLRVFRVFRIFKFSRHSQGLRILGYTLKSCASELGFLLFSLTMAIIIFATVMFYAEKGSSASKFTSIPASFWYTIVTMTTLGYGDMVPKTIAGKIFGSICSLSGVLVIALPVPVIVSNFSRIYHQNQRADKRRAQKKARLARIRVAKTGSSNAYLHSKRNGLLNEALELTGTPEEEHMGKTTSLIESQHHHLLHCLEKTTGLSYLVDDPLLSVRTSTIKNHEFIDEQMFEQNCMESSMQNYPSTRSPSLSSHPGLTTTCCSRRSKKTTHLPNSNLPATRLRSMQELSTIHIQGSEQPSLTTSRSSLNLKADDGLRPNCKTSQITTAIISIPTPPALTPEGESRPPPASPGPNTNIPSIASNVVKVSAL
T1 sequence (Q9NS61 1-270 partner): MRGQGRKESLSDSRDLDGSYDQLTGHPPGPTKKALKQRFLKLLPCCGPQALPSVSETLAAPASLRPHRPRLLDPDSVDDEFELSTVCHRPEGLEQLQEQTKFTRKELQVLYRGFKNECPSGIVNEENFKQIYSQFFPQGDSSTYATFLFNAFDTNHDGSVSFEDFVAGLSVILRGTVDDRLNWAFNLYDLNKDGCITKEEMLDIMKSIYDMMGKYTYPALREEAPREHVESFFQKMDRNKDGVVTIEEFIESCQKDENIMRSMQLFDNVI
Test: Whole-cell patch clamp in human atrial myocytes: Ito
Type: cell-based
Protocol: The blocking profile of the compounds of the invention is determined on the following channels of the human atrial myocytes: INa, Ito, Isus and IK1 channel currents.
Human atrial myocytes: Myocytes were prepared from specimens with grossly normal anatomical aspect, excised from hearts of patients with normal P-wave electrocardiogram, undergoing bypass surgery. Human atrial sample were obtained following approval by the ethical committee. […]
Experiments were performed at room temperature (20-25° C.) for INa and at 32-34° C. for Ito, Isus, IK1. Currents were measured using the whole-cell variant of the patch clamp method. […]
After rupture of the cell membrane to enter the whole-cell mode, current amplitude and kinetics were allowed to stabilize for 3-7 min before initiating the experimental procedure. K^+ currents recorded from human atrial myocytes were elicited by a 500 ms pulse to +60 mV from a holding potential of −50 mV for Ito and Isus. Ito was measured as a peak current amplitude whereas Isus as a current present at the end of the 500 ms voltage pulse. In addition, the area under the curve, before and after compound, were measured over the course of the pulse period. […]

Block at 10 μM in %: Ito (Kv4.3) (10 μM, n = 3 cells): 82.0 ± 3.6%
IC50 (dose-response analysis, read-out: IC50 on the ITO current): 800 nM
Compound: COc1ccccc1Nc1nc(C)c(C(=O)N[C@H]2CCC[C@@H]2OCc2ccccc2)s1 [Compound 68, 2-(2-methoxy-phenylamino)-4-methyl-thiazole-5-carboxylic acid (1S,2S)-2-(benzyloxycyclopent-1-yl) amide]
